Holding throughout (assay type): biochemical
Test [1] has as its target T1, recombinant human DPP9 (Homo sapiens, UniProt Q86TI2).
T1 construct: purchased R&D Systems
Kind of test: DPP9 inhibition, fluorogenic substrate H-Gly-Pro-AMC. Put shortly: (§1)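 Enzyme per reaction: 50 ng DPP9, 20 ng DPP8, 10 ng each DPP7 and PREP. Compounds were serially diluted (8 points, up to 0.5% DMSO) and incubated at 25 °C.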

The target of test [2] is T2, Recombinant human FAP (Homo sapiens, UniProt Q12884).
T2 construct: purchased R&D systems
T2 sequence (Q12884 1-760): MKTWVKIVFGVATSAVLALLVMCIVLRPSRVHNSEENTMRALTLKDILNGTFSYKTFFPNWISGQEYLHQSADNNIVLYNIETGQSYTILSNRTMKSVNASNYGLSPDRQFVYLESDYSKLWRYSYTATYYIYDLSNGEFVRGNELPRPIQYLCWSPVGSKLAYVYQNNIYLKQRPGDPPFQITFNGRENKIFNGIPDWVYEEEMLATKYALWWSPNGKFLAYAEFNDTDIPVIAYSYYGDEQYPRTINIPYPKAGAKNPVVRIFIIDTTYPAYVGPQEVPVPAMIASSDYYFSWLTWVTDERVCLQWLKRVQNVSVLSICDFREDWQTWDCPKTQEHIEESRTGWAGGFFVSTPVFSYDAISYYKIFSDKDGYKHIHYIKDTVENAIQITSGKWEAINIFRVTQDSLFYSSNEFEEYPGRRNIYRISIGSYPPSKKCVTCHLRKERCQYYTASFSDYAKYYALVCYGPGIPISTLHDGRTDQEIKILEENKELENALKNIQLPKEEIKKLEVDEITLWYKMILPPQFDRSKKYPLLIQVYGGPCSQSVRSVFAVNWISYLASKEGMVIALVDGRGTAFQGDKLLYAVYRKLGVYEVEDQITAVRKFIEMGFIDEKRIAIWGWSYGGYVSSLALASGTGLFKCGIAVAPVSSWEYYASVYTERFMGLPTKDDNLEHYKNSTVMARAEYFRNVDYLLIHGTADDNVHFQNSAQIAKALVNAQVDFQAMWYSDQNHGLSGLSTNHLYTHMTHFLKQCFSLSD
Kind of test: FAP inhibition, fluorogenic substrate Z-Gly-Pro-AMC. Summed up:
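Recombinant human FAP, 10 ng per reaction, in 50 mM Tris pH 7.5 with 1 M NaCl and 1 mg/ml BSA at 25° C; substrate Z-Gly-Pro-AMC, ≤0.1% DMSO. AMC fluorescence read at ex 380/em 460 nm; % signal-rate decrease vs no-inhibitor control, 8-point curves fitted to a four-parameter logistic for IC50.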

Test [3] addresses T3, recombinant human PREP (Homo sapiens, UniProt P48147).
T3 construct: purchased R&D System
T3 sequence (P48147 1-710): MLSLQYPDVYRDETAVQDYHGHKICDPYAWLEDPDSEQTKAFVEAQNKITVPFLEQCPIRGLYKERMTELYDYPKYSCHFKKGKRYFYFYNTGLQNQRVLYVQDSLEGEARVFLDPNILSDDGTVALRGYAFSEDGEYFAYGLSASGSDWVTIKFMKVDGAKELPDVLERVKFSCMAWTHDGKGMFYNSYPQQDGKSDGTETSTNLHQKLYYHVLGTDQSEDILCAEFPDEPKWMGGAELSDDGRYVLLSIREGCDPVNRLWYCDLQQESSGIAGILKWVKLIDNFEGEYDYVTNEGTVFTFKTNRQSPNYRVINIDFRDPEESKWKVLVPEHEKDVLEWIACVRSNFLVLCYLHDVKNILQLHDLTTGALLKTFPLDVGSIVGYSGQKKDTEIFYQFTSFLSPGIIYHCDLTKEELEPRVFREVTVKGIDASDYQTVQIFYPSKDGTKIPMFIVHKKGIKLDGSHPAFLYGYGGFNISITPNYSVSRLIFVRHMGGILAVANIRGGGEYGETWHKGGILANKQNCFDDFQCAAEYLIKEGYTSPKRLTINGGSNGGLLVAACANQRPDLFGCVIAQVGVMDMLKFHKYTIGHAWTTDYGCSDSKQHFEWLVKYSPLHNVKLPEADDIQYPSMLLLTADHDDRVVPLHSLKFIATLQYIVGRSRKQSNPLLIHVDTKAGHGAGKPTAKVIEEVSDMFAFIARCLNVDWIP
Description: PREP inhibition, fluorogenic substrate Z-Gly-Pro-AMC. Particulars: Inhibitory Activity (IC50, nM) PREP. Summed up: as §1

For test [4], the target named is T4, recombinant human DPP7 (Homo sapiens, UniProt Q9UHL4).
T4 construct: purchased R&D Systems
Description: DPP7 inhibition, fluorogenic substrate Lys-Pro-AMC. Summed up:
as §1

Test [5] concerns the target DPP4 (Homo sapiens, UniProt P27487). Description: DPP4 inhibition, fluorogenic substrate H-Gly-Pro-AMC. Also on record: purchased R&D Systems. As to conditions: for inhibition at 1 µM: read-out: hDPP4 inhibition % at 1 μM.
The target of test [6] is T5, recombinant human DPP8 (Homo sapiens, UniProt Q6V1X1).
T5 construct: purchased PBS Bioscience
Kind of test: DPP8 inhibition, fluorogenic substrate Z-Ala-Pro-AMC. Put shortly: as §1

The mark [7] stands for this setting: recombinant human FAP, substrate Z-Gly-Pro-AMC.
The mark [8] stands for this setting: 25° C., H-Gly-Pro-AMC substrate.
[9] abbreviates: 25° C., Z-Gly-Pro-AMC substrate.
[10] abbreviates: 25° C., Z-Ala-Pro-AMC substrate.

pIC50: −log10 of the molar value. Where two headings read alike, the source gives them in different places.

As usually defined, the pIC50 is the negative decadic logarithm of the IC50, by convention in mol/L. As usually defined, the IC50 is the concentration that inhibits the measured activity by half. Usually inhibition stands for the relative decrease from the control value, in per cent.

Chain of DPP4 (P27487 whole entry): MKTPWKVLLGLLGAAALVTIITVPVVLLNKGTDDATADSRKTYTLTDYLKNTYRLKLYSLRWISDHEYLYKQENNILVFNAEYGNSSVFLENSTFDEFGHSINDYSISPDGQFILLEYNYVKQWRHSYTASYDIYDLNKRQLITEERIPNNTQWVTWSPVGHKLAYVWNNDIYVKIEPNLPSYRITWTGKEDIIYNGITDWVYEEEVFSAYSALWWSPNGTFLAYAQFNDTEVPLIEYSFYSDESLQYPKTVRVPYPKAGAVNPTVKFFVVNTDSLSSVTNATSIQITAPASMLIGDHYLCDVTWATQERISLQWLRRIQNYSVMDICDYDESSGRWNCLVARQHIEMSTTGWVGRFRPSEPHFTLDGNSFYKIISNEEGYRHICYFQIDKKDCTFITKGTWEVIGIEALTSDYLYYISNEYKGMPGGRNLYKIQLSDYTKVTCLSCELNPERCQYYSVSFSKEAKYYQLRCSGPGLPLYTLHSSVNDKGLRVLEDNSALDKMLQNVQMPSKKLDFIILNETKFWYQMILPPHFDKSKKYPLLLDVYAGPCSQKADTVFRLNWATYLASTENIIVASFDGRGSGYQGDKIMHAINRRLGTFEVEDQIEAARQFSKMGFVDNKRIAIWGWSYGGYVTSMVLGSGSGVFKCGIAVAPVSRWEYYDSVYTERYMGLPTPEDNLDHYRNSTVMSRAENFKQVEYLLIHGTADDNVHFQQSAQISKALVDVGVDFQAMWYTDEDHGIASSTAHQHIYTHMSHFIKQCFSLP
T1 sequence (Q86TI2 whole entry): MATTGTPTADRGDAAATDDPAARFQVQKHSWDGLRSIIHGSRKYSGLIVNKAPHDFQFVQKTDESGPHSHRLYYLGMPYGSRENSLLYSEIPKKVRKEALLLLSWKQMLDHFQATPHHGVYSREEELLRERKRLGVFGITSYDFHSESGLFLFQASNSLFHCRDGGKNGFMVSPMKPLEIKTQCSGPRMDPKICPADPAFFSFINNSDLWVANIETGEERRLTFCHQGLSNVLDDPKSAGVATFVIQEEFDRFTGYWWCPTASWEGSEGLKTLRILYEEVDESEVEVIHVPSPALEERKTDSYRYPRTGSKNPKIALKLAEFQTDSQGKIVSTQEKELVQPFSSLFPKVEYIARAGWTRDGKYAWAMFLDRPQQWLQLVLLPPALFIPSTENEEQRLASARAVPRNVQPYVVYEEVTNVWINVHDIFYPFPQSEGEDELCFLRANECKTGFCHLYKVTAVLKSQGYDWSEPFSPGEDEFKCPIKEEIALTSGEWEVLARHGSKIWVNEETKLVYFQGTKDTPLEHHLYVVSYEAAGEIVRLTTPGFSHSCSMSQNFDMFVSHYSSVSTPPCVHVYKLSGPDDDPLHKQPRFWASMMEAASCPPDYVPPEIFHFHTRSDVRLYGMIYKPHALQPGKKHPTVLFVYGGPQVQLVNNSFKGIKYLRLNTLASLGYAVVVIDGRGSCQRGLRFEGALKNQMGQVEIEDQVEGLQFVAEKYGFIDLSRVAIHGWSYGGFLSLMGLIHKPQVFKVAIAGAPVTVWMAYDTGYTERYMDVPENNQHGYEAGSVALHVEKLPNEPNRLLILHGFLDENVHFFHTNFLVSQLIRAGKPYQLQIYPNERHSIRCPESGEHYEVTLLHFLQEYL
T5 sequence (Q6V1X1 whole entry): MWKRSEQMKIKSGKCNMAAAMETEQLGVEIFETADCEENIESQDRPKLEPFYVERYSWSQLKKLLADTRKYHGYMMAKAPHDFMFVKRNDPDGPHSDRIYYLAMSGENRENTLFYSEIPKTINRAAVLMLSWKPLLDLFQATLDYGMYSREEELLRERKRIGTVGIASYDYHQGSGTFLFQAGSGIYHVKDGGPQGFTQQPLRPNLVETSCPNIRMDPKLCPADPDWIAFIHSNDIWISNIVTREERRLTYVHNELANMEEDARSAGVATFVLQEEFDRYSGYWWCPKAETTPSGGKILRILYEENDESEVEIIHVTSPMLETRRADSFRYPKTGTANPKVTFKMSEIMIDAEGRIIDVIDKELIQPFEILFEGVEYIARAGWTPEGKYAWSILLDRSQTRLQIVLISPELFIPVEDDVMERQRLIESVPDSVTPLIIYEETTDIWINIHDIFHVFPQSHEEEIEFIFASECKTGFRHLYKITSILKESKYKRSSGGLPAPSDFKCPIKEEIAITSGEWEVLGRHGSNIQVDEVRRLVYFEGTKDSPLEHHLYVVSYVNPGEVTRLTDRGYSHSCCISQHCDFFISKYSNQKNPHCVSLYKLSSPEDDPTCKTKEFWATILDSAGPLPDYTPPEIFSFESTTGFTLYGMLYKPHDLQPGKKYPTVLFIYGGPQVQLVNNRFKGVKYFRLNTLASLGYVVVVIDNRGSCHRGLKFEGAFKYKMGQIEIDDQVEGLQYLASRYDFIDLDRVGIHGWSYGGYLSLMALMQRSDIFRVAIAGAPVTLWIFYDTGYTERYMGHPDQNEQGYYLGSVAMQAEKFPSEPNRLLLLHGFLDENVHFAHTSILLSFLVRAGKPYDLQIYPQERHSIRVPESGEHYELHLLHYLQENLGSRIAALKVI

As to `COc1ccc2nccc(O[C@H]3CCN(CC(=O)N4C[C@@H](F)C[C@H]4C#N)C3)c2c1` [Example 299, (2S,4S)-4-fluoro-1-[2-[(3S)-3-[(6-methoxy-4-quinolyl)oxy]pyrrolidin-1-yl]acetyl]pyrrolidine-2-carbonitrile], the negative-log IC50 (pIC50) in test [1] (recombinant human DPP9) is 5.09; in test [2] (setting [7]), 8.77; in test [4] (recombinant human DPP7), 5.01; in test [5] (recombinant human DPP4), below 5.00; in test [6] (recombinant human DPP8), 4.88. Further, the IC50 in test [3] (recombinant human PREP) was 1410 nM.
Take `COc1ccc2c(C(=O)N[C@H]3CCN(CC(=O)N4C[C@@H](F)C[C@H]4C#N)C3)coc2c1` [Example 136, 6-methoxy-N-[(3S)-1-[2-oxo-2-[(2S,4S)-2-cyano-4-fluoro-pyrrolidin-1-yl]ethyl]pyrrolidin-3-yl]benzofuran-3-carboxamide]: the pIC50 in test [1] (setting [8]) is 4.84; in test [2] (setting [9]) it was 7.91; in test [4], 5.71; in test [5] (setting [8]), 5.04; in test [6] (setting [10]), 4.65. In addition, the IC50 in test [3] (setting [9]) was determined as 5150 nM.
On to `COc1ccc2c(C(=O)N[C@H]3CCN(CC(=O)N4CCC[C@H]4C#N)C3)coc2c1` [Example 54, N—((S)-1-(2-((S)-2-cyanopyrrolidin-1-yl)-2-oxoethyl)pyrrolidin-3-yl)-6-methoxybenzofuran-3-carboxamide], for which the pIC50 was below 4.00 in test [1] (setting [8]), 8.07 in test [2] (setting [9]), 5.62 in test [4] and 4.64 in test [6] (setting [10]). In addition, the half-inhibitory concentration (IC50) in test [3] (setting [9]) was 5500 nM. The inhibition at 1 µM in test [5] was 2%.
Take `N#C[C@@H]1CCCN1C(=O)CN1CC[C@H](Oc2cccc3cccnc23)C1` [Example 64, (S)-1-(2-((S)-3-(quinolin-8-yloxy)pyrrolidin-1-yl)acetyl)pyrrolidine-2-carbonitrile]: the pIC50 in test [1] (setting [8]) is 4.80; in test [2] (setting [9]), 7.72; in test [4], 5.45; in test [5] (setting [8]) it was below 6.00; in test [6] (setting [10]), below 4.00. In addition, the IC50 in test [3] (setting [9]) was determined as 84000 nM.
In the case of `N#C[C@@H]1C[C@@H]2C[C@@H]2N1C(=O)CN1CCC(Nc2cccc3ncccc23)CC1` [Example 115, (1S,3S,5S)-2-(2-(4-(quinolin-5-ylamino)piperidin-1-yl)acetyl)-2-azabicyclo[3.1.0]hexane-3-carbonitrile], the pIC50 was 4.35 in test [1] (setting [8]), 8.25 in test [2] (setting [9]), 5.24 in test [4] and 4.28 in test [6] (setting [10]). Besides, the IC50 in test [3] (setting [9]) is above 100000 nM. In test [5], the inhibition at 1 µM was determined as 1.4%.
For the compound `N#Cc1ccc2c(N[C@H]3CCN(CC(=O)N4C[C@@H](F)C[C@H]4C#N)C3)cccc2n1` [Example 252, 5-[[(3S)-1-[2-oxo-2-[(2S,4S)-2-cyano-4-fluoro-pyrrolidin-1-yl]ethyl]pyrrolidin-3-yl]amino]quinoline-2-carbonitrile], the pIC50 in test [1] (recombinant human DPP9) was 5.31; in test [2] (setting [7]), 9.10; in test [4] (recombinant human DPP7), 6.51; in test [5] (recombinant human DPP4), 5.79; in test [6] (recombinant human DPP8), 5.60. In addition, in test [3] (recombinant human PREP), the concentration for half-maximal inhibition (IC50) came to 3320 nM.
As to `N#C[C@@H]1CC(F)(F)CN1C(=O)CN1CC[C@H](Nc2cccc3ccoc23)C1` [Example 11, (S)-1-(2-((S)-3-(benzofuran-7-ylamino)pyrrolidin-1-yl)acetyl)-4,4-difluoropyrrolidine-2-carbonitrile], the pIC50 in test [1] (setting [8]) was 4.77; in test [2] (setting [9]), 8.89; in test [4] it was 7.02; in test [5] (setting [8]) it was below 6.00; in test [6] (setting [10]) it was 6.64. Also, the IC50 in test [3] (setting [9]) was above 100000 nM.
For `N#Cc1ccc2c(N[C@H]3CCN(CC(=O)N4CCC[C@H]4C#N)C3)cccc2n1` [Example 231, 5-[[(3S)-1-[2-oxo-2-[(2S)-2-cyanopyrrolidin-1-yl]ethyl]pyrrolidin-3-yl]amino]quinoline-2-carbonitrile], the pIC50 in test [1] (recombinant human DPP9) is 4.67; in test [2] (setting [7]), 9.00; in test [4] (recombinant human DPP7) it was 5.82; in test [5] (recombinant human DPP4) it was below 5.00; in test [6] (recombinant human DPP8), 4.90. In addition, the IC50 in test [3] (recombinant human PREP) worked out at 11500 nM.
Turning to `N#C[C@@H]1C[C@H](F)CN1C(=O)CN1CCC(Nc2ccc(F)c3cnccc23)CC1` [Example 357, (2S,4S)-4-fluoro-1-[2-[4-[(8-fluoro-5-isoquinolyl)amino]-1-piperidyl]acetyl]pyrrolidine-2-carbonitrile], the pIC50 was 5.55 in test [1] (recombinant human DPP9); 8.42 in test [2] (setting [7]); 5.79 in test [4] (recombinant human DPP7); 5.33 in test [5] (recombinant human DPP4); 5.44 in test [6] (recombinant human DPP8). The IC50 in test [3] (recombinant human PREP) came to 4830 nM.
In the case of `Cc1cnc2cccc(NC3CCN(CC(=O)N4CCC[C@H]4C#N)CC3)c2c1` [Example 121, (S)-1-(2-(4-((3-methylquinolin-5-yl)amino)piperidin-1-yl)acetyl)pyrrolidine-2-carbonitrile], the pIC50 in test [1] (setting [8]) was 4.33; in test [2] (setting [9]), 8.74; in test [4] it was 5.76; in test [5] (setting [8]) it was below 5.00; in test [6] (setting [10]), 4.32. Further, the IC50 in test [3] (setting [9]) stood at 73700 nM.
For `N#C[C@@H]1CCCN1C(=O)CN1CC[C@@H](Nc2cncc3ccccc23)C1` [Example 24, (S)-1-(2-((R)-3-(isoquinolin-4-ylamino)pyrrolidin-1-yl)acetyl)pyrrolidine-2-carbonitrile], the pIC50 in test [1] (setting [8]) is 4.17; in test [2] (setting [9]), 8.67; in test [4], 6.28; in test [5] (setting [8]), below 6.00; in test [6] (setting [10]), 4.11. For the same compound, in test [3] (setting [9]), the half-inhibitory concentration (IC50) stood at 5460 nM.
Regarding `N#C[C@@H]1CCCN1C(=O)CN1CC[C@@H](Nc2cnc3ccccc3c2)C1` [Example 17, (S)-1-(2-((R)-3-(quinolin-3-ylamino)pyrrolidin-1-yl)acetyl)pyrrolidine-2-carbonitrile], the pIC50 is below 4.00 in test [1] (setting [8]); 8.20 in test [2] (setting [9]); 5.79 in test [4]; below 6.00 in test [5] (setting [8]); below 5.00 in test [6] (setting [10]). Moreover, the IC50 in test [3] (setting [9]) came out at 6960 nM.
`N#C[C@@H]1CCCN1C(=O)CN1CC[C@H](Nc2cccc3ncc(Cl)cc23)C1` [Example 235, (2S)-1-[2-[(3S)-3-[(3-chloro-5-quinolyl)amino]pyrrolidin-1-yl]acetyl]pyrrolidine-2-carbonitrile]: the pIC50 in test [1] (recombinant human DPP9) is 4.75; in test [2] (setting [7]) it was 9.15; in test [4] (recombinant human DPP7), 5.55; in test [5] (recombinant human DPP4), below 5.00; in test [6] (recombinant human DPP8) it was 4.63. In test [3] (recombinant human PREP), the IC50 came to 8460 nM.
For `COc1cc(NC2CCN(CC(=O)N3CCC[C@H]3C#N)CC2)c2cccnc2c1` [Example 124, (S)-1-(2-(4-((7-methoxyquinolin-5-yl)amino)piperidin-1-yl)acetyl)pyrrolidine-2-carbonitrile], the pIC50 in test [1] (setting [8]) was 4.08; in test [2] (setting [9]), 8.42; in test [4], 6.29; in test [5] (setting [8]), below 5.00; in test [6] (setting [10]) it was 4.33. For the same compound, in test [3] (setting [9]), the IC50 was found to be 16100 nM.

Source of the values: patent US11655235B2, “Pyrrolidine and piperidine compounds” (YUHAN CORPORATION, priority 2019, dated 2023).
